In PubChem BioAssay AID1199 (EPA DSSTox, 2008) one finds outcome and Potency data, which are given here for 64 compounds.

The source made the active and inactive calls.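 Rule for the calls: active = a tumour-causing dose and a tumour site recorded for mice in at least one sex group; inconclusive = only government mouse studies exist and were judged inadequate; inactive = mouse studies exist but none gave tumours.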

The data set relates to mouse carcinogenicity bioassay, TD50 from CPDB. The experiment in a line: DSSTox (CPDBAS) Carcinogenic Potency Database Summary Mouse Bioassay Results. An excerpt:
The Carcinogenic Potency Database (CPDB) is a unique and widely used international resource of the results of over 6500 chronic, long-term animal cancer tests on over 1500 chemical substances. The CPDB provides easy access to the bioassay literature, with qualitative and quantitative analyses of both positive and negative experiments that have been published over the past 50 years in the general literature and by the National Cancer Institute/National Toxicology Program. The CPDB standardizes the diverse literature of cancer bioassays that vary widely in protocol, histopathological examination and nomenclature, and in the published author's choices of what information to provide in their papers. Results are reported in the CPDB for tests in rats, mice, hamsters, dogs, and nonhuman primates, and are based on the most positive result among all experiments for each sex-species. The DSSTox CPDBAS (all species) file incorporates data from the CPDB Summary Tables for the full list of over 1500 chemical substances tested in at least one species. Summary bioassay results for Mouse (TD50, tumor sites, male, female, both sexes) are provided in the CPDB Summary Tables and the DSSTox CPDBAS file for over 1000 chemical substances.
TD50 is a standardized quantitative measure of carcinogenic potency (analogous to an LD50) and is reported in the CPDB Summary Table for each species. Activity Score for actives is computed by mapping of LOG10 (1/TD50_Mouse_mmol) activity values spanning range [MIN, MAX] onto Integer 1-100 Activity Score range, where 100 is highest potency and 1 is lowest: Activity Score = 100 * INTEGER[(log10(1/Activity) - MIN)/(MAX […] MIN)]. If activity is reported but no TD50_Mouse_mmol value is computed, such as for a mixture, the Activity Score is assigned the activity value "50". […] Target sites are reported for each sex-species group with a positive result in the CPDB on the basis of a positive author's opinion for the particular site, using all results from both the general literature and NCI/NTP bioassays. If a chemical has two or more target sites listed, the results may be from different experiments, and a single site may be a target organ in more than one experiment, as well. Blank entry in TargetSites field indicates no results reported.

The mark [1] stands for this setting: TD50_Mouse_Note: no positive results, TargetSites_Mouse_Female: no positive results.
[2] abbreviates: TD50_Mouse_Note: TD50 is harmonic mean of more than one positive test, TargetSites_Mouse_Female: stomach.
The mark [3] stands for this setting: TD50_Mouse_Note: positive test results only by intraperitoneal or intravenous injection, TargetSites_Mouse_Female: peritoneal cavity.
Setting [4] is: TargetSites_Mouse_Female: liver.
Setting [5] is: TargetSites_Mouse_Female: no positive results.
[6] abbreviates: TD50_Mouse_Note: TD50 is harmonic mean of more than one positive test, TargetSites_Mouse_Female: liver.
Setting [7] is: TD50_Mouse_Note: only experiment is NCI/NTP bioassay inadequate, TargetSites_Mouse_Female: NTP bioassay inadequate.

With `O=[N+]([O-])c1ccc(O)c([N+](=O)[O-])c1`, the outcome is “inactive” under setting [1] and “inactive” (TargetSites_Mouse_BothSexes: no positive results).

With `CC(Oc1cc(Cl)c(Cl)cc1Cl)C(=O)O` (stereo unspecified), the outcome under setting [1] is “inactive; no positive results”.

As for `CCN=c1cc2oc3cc(NCC)c(C)cc3c(-c3ccccc3C(=O)OCC)c-2cc1C`, the outcome under setting [1] was “inactive; no positive results”.

Take `Nc1ccc(-c2ccc(N)cc2)cc1`: the Potency is 0.108 mmol/kg/day. The Potency (TD50_Mouse_Note: TD50 is harmonic mean of more than one positive test, TargetSites_Mouse_Female: harderian gland, liver, vascular system) was 0.0766 mmol/kg/day.

Regarding `c1cc(OCC2CO2)cc(OCC2CO2)c1` (stereo unspecified), the Potency under setting [2] was 0.109 mmol/kg/day.

For the compound `CC1=C[C@H]2O[C@@H]3[C@H](O)[C@@H](O)[C@@](C)(C34CO4)[C@@]2(CO)[C@H](O)C1=O` (stereo partly specified), under setting [1], the outcome was inactive.

In the case of `CNC(=O)Oc1cc(C)c(N(C)C)c(C)c1`, the outcome under setting [1] was “inactive; no positive results”.

As to `CCN(Cc1cccc(S(=O)(=O)O)c1)c1ccc(C(=C2C=CC(=[N+](CC)Cc3cccc(S(=O)(=O)[O-])c3)C=C2)c2ccccc2)cc1`, the outcome under setting [1] is “inactive; no positive results”.

Regarding `CC(=O)Oc1ccccc1C(=O)O`, under setting [1], the outcome was “inactive; no positive results”.

On to `ClCOCCOCCl`, for which the Potency under setting [3] was 0.0291 mmol/kg/day.

In the case of `CCCCC(CC)COC(=O)COc1ccc(Cl)cc1Cl` (stereo unspecified), the outcome under setting [1] is “inactive; no positive results”.

In the case of `c1ccc(NNc2ccccc2)cc1`, the Potency under setting [4] was 0.141 mmol/kg/day.

Consider `COc1c2occc2cc2ccc(=O)oc12`, for which, under setting [1], the outcome is “inactive; no positive results”.

For the compound `COP(=O)(OC)OC`, where the note is “TargetSites_Mouse_Female: uterus”, the Potency is 2.39 mmol/kg/day.

With `O=c1c(O)c(-c2ccc(O)c(O)c2)oc2cc(O)cc(O)c12`, the outcome under setting [1] was “inactive; no positive results”.

As to `CN(C)/N=N/c1nc[nH]c1C(N)=O`, under “TD50_Mouse_Note: positive test results only by intraperitoneal or intravenous injection, TD50 is harmonic mean of more than one positive, TargetSites_Mouse_Female: hematopoietic system, lung, uterus, vascular system”, the Potency was 0.0053 mmol/kg/day.

With `CC(C)NCC(O)c1ccc(NS(C)(=O)=O)cc1` (stereo unspecified), the outcome under setting [1] is “inactive; no positive results”.

With `Oc1ccc(Cl)cc1Cc1ccccc1`, under setting [5], the Potency was 6.17 mmol/kg/day.

Regarding `c1ccc2sc(SNC3CCCCC3)nc2c1`, the outcome under setting [1] was “inactive; no positive results”.

In the case of `ClCOCc1ccc(COCCl)cc1`, the Potency under setting [3] is 0.0132 mmol/kg/day.

For the compound `O=C(c1ccccc1)C(O)c1ccccc1` (stereo unspecified), the outcome under setting [1] is “inactive; no positive results”.

On to `c1ccc2sc(SSc3nc4ccccc4s3)nc2c1`, for which the outcome under setting [1] is “inactive; no positive results”.

Consider `C=Cc1cccc(C)c1`, for which, under setting [1], the outcome is “inactive; no positive results”.

On to `CC(=O)N[C@@H](CC(C)C)C(=O)N[C@@H](CC(C)C)C(=O)N[C@H](C=O)CCCN=C(N)N`, for which the Potency under setting [5] is 0.131 mmol/kg/day.

For `CC[C@H]1OC(=O)C[C@@H](O)[C@H](C)[C@@H](O[C@@H]2O[C@H](C)[C@@H](O[C@H]3C[C@@](C)(O)[C@@H](O)[C@H](C)O3)[C@H](N(C)C)[C@H]2O)[C@@H](CC=O)C[C@@H](C)C(=O)/C=C/C(C)=C/C1CO[C@@H]1O[C@H](C)[C@@H](O)[C@@H](OC)[C@H]1OC` (stereo partly specified), the outcome under setting [1] is “inactive; no positive results”.

With `O=S(=O)(O)c1cc(S(=O)(=O)O)c2c(N=Nc3ccccc3)c(O)ccc2c1`, the outcome under setting [1] is “inactive; no positive results”.

With `CN(C)c1ccc(N=NS(=O)(=O)O)cc1`, the outcome under setting [1] was “inactive; no positive results”.

As for `CC(C)NCC(O)COc1cccc2ccccc12` (stereo unspecified), the outcome under setting [1] was “inactive; no positive results”.

As for `Cc1ccc2c(c1N)C(=O)c1ccccc1C2=O`, the Potency under setting [4] is 0.733 mmol/kg/day.

For `Cc1ccc([N+](=O)[O-])cc1`, the outcome under setting [1] was “inactive; no positive results”.

`CNC(=O)CSP(=S)(OC)OC`: the outcome under setting [1] was “inactive; no positive results”.

In the case of `C=CC(=O)OCC`, the Potency under setting [2] is 3.24 mmol/kg/day.

For `CC(Cl)Cl`, the outcome under setting [1] was “inactive; no positive results”.

In the case of `Oc1ccccc1`, under setting [1], the outcome is “inactive; no positive results”.

`Cc1cc(OC(=O)N(C)C)n(C(C)C)n1`: the outcome under setting [1] is “inactive; no positive results”.

As for `CCCCC(CC)COC(=O)c1ccccc1C(=O)OCC(CC)CCCC` (stereo unspecified), the Potency under setting [6] is 1.79 mmol/kg/day.

Regarding `ClCCl`, under “TD50_Mouse_Note: TD50 is harmonic mean of more than one positive test, TargetSites_Mouse_Female: liver, lung”, the Potency was 13 mmol/kg/day.

As for `CCN(Cc1cccc(S(=O)(=O)O)c1)c1ccc(C(=C2C=CC(=[N+](CC)Cc3cccc(S(=O)(=O)O)c3)C=C2)c2ccccc2S(=O)(=O)[O-])cc1`, the outcome under setting [1] was “inactive; no positive results”.

`C=C1C(C)(C)[C@@]2(Cl)C(Cl)[C@]1(Cl)C(Cl)(Cl)C2(Cl)Cl` (stereo partly specified): the Potency (TD50_Mouse_Note: TD50 is harmonic mean of more than one positive test, TargetSites_Mouse_Female: no positive results) is 0.00234 mmol/kg/day.

Regarding `COc1ccc(O)c(C(C)(C)C)c1`, under “TD50_Mouse_Note: TD50 is harmonic mean of more than one positive test, no positive results are statistically significant, TargetSites_Mouse_Female: no positive results”, the Potency was 30.7 mmol/kg/day.

On to `CC(=O)Nc1ccc(OCC(O)CNC(C)C)cc1` (stereo unspecified), for which the outcome under setting [1] is “inactive; no positive results”.

On to `CS(=O)(=O)OCCCNCCCOS(C)(=O)=O`, for which, under setting [1], the outcome was “inactive; no positive results”.

For the compound `O=NN1CCCC1`, the Potency is 0.00678 mmol/kg/day.

Take `Nc1ccc(-c2ccccc2)cc1`: for the setting “TD50_Mouse_Note: TD50 is harmonic mean of more than one positive test, TargetSites_Mouse_Female: liver, urinary bladder”, the Potency is 0.0124 mmol/kg/day.

For the compound `Nc1ccc(-c2ccc(N)c(O)c2)cc1O`, the Potency (TD50_Mouse_Note: no positive results are statistically significant) was 1.22 mmol/kg/day.

As for `Clc1cccc(-c2ccc(Cl)c(Cl)c2Cl)c1Cl`, under “TD50_Mouse_Note: TD50_Mouse_mmol was not calculated for this mixture, but Activiity Score is assigned value of 50 to indicate active”, the outcome is “active; liver”.

Regarding `COc1cc2c(c3c1c(=O)c1ccccc1n3C)C=CC(C)(C)O2`, the outcome under setting [7] is listed as “ntp bioassay inadequate”.

In the case of `O=C(O)c1ccccc1-c1c2cc(I)c(=O)c(I)c-2oc2c(I)c(O)c(I)cc12`, the outcome under setting [1] is “inactive; no positive results”.

As to `Cc1cn([C@H]2C[C@H](N=[N+]=[N-])[C@@H](CO)O2)c(=O)[nH]c1=O`, where the note is “TD50_Mouse_Note: TD50 is harmonic mean of more than one positive test, TargetSites_Mouse_Female: vagina”, the Potency is 1.11 mmol/kg/day.

With `CC(=O)Nc1nnc(-c2ccc([N+](=O)[O-])o2)s1`, under “TargetSites_Mouse_Female: stomach”, the Potency was 0.0265 mmol/kg/day.

For `Nc1nc(=S)c2ncn([C@H]3C[C@H](O)[C@@H](CO)O3)c2[nH]1`, the outcome under setting [7] is “ntp bioassay inadequate”.

As to `CC(CCl)OC(C)CCl` (stereo unspecified), the Potency (TD50_Mouse_Note: TD50 is harmonic mean of more than one positive test, TargetSites_Mouse_Female: lung) is 1.12 mmol/kg/day.

Consider `OC[C@@H](O)[C@H]1O[C@@H]2O[C@H](C(Cl)(Cl)Cl)O[C@@H]2[C@H]1O`, for which, under setting [1], the outcome was “inactive; no positive results”.

Consider `CC(C)Nc1nc(Cl)nc(NC(C)C)n1`, for which the outcome under setting [1] was “inactive; no positive results”.

With `CN(C)[C@@H]1C(=O)C(C(N)=O)=C(O)[C@@]2(O)C(=O)C3=C(O)c4c(O)cccc4[C@@](C)(O)[C@H]3C[C@@H]12`, the outcome under setting [1] was “inactive; no positive results”.

As to `C/C=C/C(=O)Oc1c(C(C)CCCCCC)cc([N+](=O)[O-])cc1[N+](=O)[O-]` (stereo unspecified), under setting [1], the outcome was “inactive; no positive results”.

On to `CN1CCCC1=O`, for which the Potency under setting [6] was 20.7 mmol/kg/day.

On to `CN(C)N`, for which the Potency (TD50_Mouse_Note: TD50 is harmonic mean of more than one positive test, TargetSites_Mouse_Female: lung, vascular system) is 0.0659 mmol/kg/day.

For `C=CC(=O)NCO`, under “TD50_Mouse_Note: TD50 is harmonic mean of more than one positive test, TargetSites_Mouse_Female: harderian gland, liver, lung, ovary”, the Potency was 0.263 mmol/kg/day.

`OC[C@H]1O[C@@H]2O[C@H]3[C@H](O)[C@@H](O)[C@@H](O[C@H]4[C@H](O)[C@@H](O)[C@@H](O[C@H]5[C@H](O)[C@@H](O)[C@@H](O[C@H]6[C@H](O)[C@@H](O)[C@@H](O[C@H]7[C@H](O)[C@@H](O)[C@@H](O[C@H]8[C@H](O)[C@@H](O)[C@@H](O[C@H]1[C@H](O)[C@H]2O)O[C@@H]8CO)O[C@@H]7CO)O[C@@H]6CO)O[C@@H]5CO)O[C@@H]4CO)O[C@@H]3CO`: the outcome under setting [1] is “inactive; no positive results”.

Turning to `Nc1ccc2ccccc2c1S(=O)(=O)O`, the outcome under setting [1] is “inactive; no positive results”.

`O=CNc1nc(-c2ccc([N+](=O)[O-])o2)cs1`: the Potency (TD50_Mouse_Note: TD50 is harmonic mean of more than one positive test, greater than ten-fold variation among TD50 values for positive res, TargetSites_Mouse_Female: hematopoietic system, lung, stomach, urinary bladder) was 0.0824 mmol/kg/day.

Regarding `COC(N)=O`, under setting [1], the outcome was “inactive; no positive results”.

For the compound `CCNC(=O)Nc1ncc([N+](=O)[O-])s1`, the Potency under setting [5] is 3.51 mmol/kg/day.
